What follows are molecules tested against human NaV subtype, like NaV 1.7 (Homo sapiens, UniProt Q15858) (assay: E-VIPR optical membrane potential assay with electrical stimulation). Conditions: active against one or more sodium channels; Table 3 does not name the assay or NaV subtype; read-out: Binned Activity Data (IC50).
Chain of human NaV subtype, like NaV 1.7 (Q15858 whole entry): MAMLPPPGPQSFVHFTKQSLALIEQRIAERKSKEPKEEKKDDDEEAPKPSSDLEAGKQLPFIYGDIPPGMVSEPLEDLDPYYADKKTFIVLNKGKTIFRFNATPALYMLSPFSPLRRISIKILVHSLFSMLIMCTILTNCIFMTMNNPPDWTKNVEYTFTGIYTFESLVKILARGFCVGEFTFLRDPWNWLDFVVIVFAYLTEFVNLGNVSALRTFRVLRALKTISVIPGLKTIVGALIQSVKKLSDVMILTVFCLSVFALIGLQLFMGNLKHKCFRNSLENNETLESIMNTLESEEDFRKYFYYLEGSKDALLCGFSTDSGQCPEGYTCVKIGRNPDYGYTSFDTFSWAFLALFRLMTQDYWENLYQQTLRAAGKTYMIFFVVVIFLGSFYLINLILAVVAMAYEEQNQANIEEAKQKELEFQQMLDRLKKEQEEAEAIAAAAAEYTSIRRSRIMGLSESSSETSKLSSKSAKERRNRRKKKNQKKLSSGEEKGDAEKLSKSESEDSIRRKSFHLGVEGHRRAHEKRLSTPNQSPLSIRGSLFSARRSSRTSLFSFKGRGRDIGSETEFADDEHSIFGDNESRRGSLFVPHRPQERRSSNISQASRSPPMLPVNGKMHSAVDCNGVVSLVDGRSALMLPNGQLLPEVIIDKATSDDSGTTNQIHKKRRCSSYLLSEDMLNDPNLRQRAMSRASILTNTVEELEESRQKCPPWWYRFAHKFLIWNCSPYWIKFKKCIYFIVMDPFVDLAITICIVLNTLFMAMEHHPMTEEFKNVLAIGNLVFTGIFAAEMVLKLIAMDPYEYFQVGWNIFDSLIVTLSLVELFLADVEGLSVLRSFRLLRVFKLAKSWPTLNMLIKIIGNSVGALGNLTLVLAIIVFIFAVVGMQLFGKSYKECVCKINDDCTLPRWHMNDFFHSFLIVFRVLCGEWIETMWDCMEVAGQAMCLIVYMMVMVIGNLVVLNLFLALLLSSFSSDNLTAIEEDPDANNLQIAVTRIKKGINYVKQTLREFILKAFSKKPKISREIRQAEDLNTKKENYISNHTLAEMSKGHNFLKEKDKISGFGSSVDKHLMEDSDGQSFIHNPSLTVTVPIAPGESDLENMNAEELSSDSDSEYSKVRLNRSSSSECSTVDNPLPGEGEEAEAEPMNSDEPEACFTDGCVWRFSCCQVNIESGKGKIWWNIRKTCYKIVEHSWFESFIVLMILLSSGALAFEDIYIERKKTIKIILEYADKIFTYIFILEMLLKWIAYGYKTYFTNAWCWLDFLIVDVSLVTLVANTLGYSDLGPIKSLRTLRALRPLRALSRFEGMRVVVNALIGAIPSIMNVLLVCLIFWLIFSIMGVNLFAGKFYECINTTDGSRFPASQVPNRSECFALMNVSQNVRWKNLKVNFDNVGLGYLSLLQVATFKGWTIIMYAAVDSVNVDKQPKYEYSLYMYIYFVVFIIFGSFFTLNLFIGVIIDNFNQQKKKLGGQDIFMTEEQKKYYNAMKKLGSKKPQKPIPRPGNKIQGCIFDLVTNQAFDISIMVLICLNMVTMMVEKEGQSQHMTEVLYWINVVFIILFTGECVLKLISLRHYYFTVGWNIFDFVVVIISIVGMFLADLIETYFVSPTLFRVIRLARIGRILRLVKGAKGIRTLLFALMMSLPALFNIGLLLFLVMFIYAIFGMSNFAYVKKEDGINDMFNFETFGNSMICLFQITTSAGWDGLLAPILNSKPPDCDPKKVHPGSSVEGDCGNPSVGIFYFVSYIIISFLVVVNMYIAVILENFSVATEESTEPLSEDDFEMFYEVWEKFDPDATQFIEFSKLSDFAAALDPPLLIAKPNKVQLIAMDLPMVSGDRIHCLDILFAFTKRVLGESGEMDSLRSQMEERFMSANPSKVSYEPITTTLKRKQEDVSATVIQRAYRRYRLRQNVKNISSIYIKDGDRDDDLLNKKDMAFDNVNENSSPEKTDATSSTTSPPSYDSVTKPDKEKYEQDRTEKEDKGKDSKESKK
Type: cell-based
Work on `Cc1cc(C(=O)N2CCC3(CC2)c2ccc(C(=O)C(F)(F)F)n2CCN3C)ccc1-c1cccc(Cl)c1` [Compound 236] yielded an IC50 of no more than 2 µM. `CN1CCn2c(C(=O)C(F)(F)F)ccc2C12CCN(C(=O)c1ccc(OC3CCOCC3)cc1)CC2` [Compound 645] showed an IC50 of no more than 2 µM. `CC(C)C(=O)c1ccc2n1CCN(C)C21CCN(C(=O)c2ccc(C(C)(C)O)c(F)c2)CC1` [Compound 183] showed an IC50 of no more than 2 µM. With `CC[C@H](C)Oc1ccc(C(=O)N2CCC3(CC2)c2ccc(C(C)=O)n2CCN3C)cc1OC` [Compound 609] the IC50 was 2 to 5 µM. In the case of `Cc1cc(C(=O)N2CCC3(CC2)c2ccc(Cl)n2CCN3C)ccc1OC(C)C` [Compound 710], the IC50 is reported as no more than 2 µM. `COc1cc(C(=O)N2CCC3(CC2)c2ccc(C(F)(F)F)n2CC(C)N3C)ccc1OC(C)C` (centres unmarked) [Compound 149] showed an IC50 of no more than 2 µM. `COc1ccc(C(=O)N2CCC3(CC2)c2ccc(C(=O)C(F)(F)F)n2C(C)CN3C)cc1Cl` (centres unmarked) [Compound 747] was tested, and the IC50 was no more than 2 µM. Molecule `CC[C@H](C)Oc1ccc(C(=O)N2CCC3(CC2)c2c(F)cc(C(F)(F)F)n2CCN3C)cc1OC` [Compound 141] has an IC50 of no more than 2 µM. `COc1cc(C(=O)N2CCC3(CC2)c2ccc(C(=O)C(F)(F)F)n2C(C)(C)CN3C)ccc1OC(C)C` [Compound 126] gave an IC50 of 2 to 5 µM. For `CN1CCn2c(C(F)(F)F)ccc2C12CCN(C(=O)c1ccc(S(=O)(=O)N3CCCC3)cc1)CC2` [Compound 123], the IC50 was no more than 2 µM. `CN1CCn2c(C(=O)C(F)(F)F)ccc2C12CCN(C(=O)c1ccc(OCC(F)(F)F)cc1)CC2` [Compound 175] was tested, and the IC50 was no more than 2 µM. For `COc1cc(C(=O)N2CCC3(CC2)c2ccc(C(=O)C(F)(F)F)n2CCN3C)ccc1-c1ccccc1` [Compound 555], the IC50 was no more than 2 µM. With `COc1cc(C(=O)N2CCC3(CC2)NC(C)(C)Cn2c(C(=O)C(F)(F)F)ccc23)ccc1OC(C)C` [Compound 375] the IC50 was no more than 2 µM. `CC(=O)c1ccc2n1CCN(C)C21CCN(C(=O)c2ccc(OC(C)C)cc2)CC1` [Compound 342] was tested, and the IC50 was greater than 5 µM. `COc1cc(C(=O)N2CCC3(CC2)c2ccc(C(C)=O)n2CCN3C)ccc1C(C)(C)C` [Compound 56] gave an IC50 of no more than 2 µM. With `COc1cc(C(=O)N2CCC3(CC2)c2c(F)cc(C(F)(F)F)n2CCN3C)ccc1OCCO` [Compound 540] the IC50 was greater than 5 µM. Molecule `CN1CCn2c(C(=O)C(F)(F)F)ccc2C12CCN(C(=O)c1ccc(S(=O)(=O)NC3CC3)cc1)CC2` [Compound 33] has an IC50 of no more than 2 µM. With `CCN(C)c1cc(C)nc2c(C(=O)N3CCC4(CC3)c3ccc(C(F)(F)F)n3CCN4C)cnn12` [Compound 660] the IC50 was no more than 2 µM. `COc1ccc(C(=O)N2CCC3(CC2)c2ccc(C(=O)C4CC4)n2CCN3C)cc1Cl` [Compound 484] gave an IC50 of no more than 2 µM. `CC1(C)Cn2c(C(=O)C(F)(F)F)ccc2C2(CCN(C(=O)c3ccc(OCC4CC4)c(F)c3)CC2)N1` [Compound 509] was tested, and the IC50 was no more than 2 µM. `COCCN1CCn2c(C(F)(F)F)ccc2C12CCN(C(=O)c1ccccc1OC(F)(F)F)CC2` [Compound 662] gave an IC50 of no more than 2 µM. `COCCN1CCn2c(C(F)(F)F)ccc2C12CCN(C(=O)c1ccc(OC(C)C)c(CO)c1)CC2` [Compound 336] showed an IC50 of no more than 2 µM. In the case of `COc1ccc(C(=O)N2CCC3(CC2)c2ccc(C(=O)C(F)(F)F)n2CCN3C)nc1C` [Compound 746], the IC50 is reported as no more than 2 µM. Molecule `CN1CCn2c(C(F)(F)F)ccc2C12CCN(C(=O)c1ccc(CC(C)(C)O)cc1)CC2` [Compound 499] has an IC50 of no more than 2 µM. `CC1CNC2(CCN(C(=O)c3ccc(COCCC(F)(F)F)cc3)CC2)c2ccc(C(=O)C(F)(F)F)n21` (centres unmarked) [Compound 505] gave an IC50 of no more than 2 µM. `CCCCOc1ccc(C(=O)N2CCC3(CC2)c2ccc(Cl)n2CCN3C)cc1OC` [Compound 65] gave an IC50 of no more than 2 µM. For `CC(C)c1ccc(C(=O)N2CCC3(CC2)c2ccc(C(=O)C(F)(F)F)n2CCN3C)cc1` [Compound 290], the IC50 was no more than 2 µM. For `COc1cc(C(=O)N2CCC3(CC2)NC(C)(C)Cn2c(C(F)(F)F)ccc23)ccc1OC(C)(C)C` [Compound 667], the IC50 was no more than 2 µM. With `Cc1cc(C(=O)N2CCC3(CC2)c2ccc(C(F)(F)C(F)(F)F)n2CCN3C)ccc1C(C)(C)O` [Compound 647] the IC50 was no more than 2 µM.
